Measured values from patent publication US11292801B2, “Calpain modulators and therapeutic uses thereof” (Blade Therapeutics, Inc., priority 2016, dated 2022).

Tests used:
Human Calpain 1/NS1 = molecular target: T1, Human Calpain 1/NS1 (Homo sapiens, UniProt P07384); assay: Biochemical inhibition of calpain 1, continuous fluorescence (FRET substrate) assay; conditions: mean, read-out: Human Calpain 1/NS1 IC50 (nM)_MEAN
T1 sequence (P07384 1-714): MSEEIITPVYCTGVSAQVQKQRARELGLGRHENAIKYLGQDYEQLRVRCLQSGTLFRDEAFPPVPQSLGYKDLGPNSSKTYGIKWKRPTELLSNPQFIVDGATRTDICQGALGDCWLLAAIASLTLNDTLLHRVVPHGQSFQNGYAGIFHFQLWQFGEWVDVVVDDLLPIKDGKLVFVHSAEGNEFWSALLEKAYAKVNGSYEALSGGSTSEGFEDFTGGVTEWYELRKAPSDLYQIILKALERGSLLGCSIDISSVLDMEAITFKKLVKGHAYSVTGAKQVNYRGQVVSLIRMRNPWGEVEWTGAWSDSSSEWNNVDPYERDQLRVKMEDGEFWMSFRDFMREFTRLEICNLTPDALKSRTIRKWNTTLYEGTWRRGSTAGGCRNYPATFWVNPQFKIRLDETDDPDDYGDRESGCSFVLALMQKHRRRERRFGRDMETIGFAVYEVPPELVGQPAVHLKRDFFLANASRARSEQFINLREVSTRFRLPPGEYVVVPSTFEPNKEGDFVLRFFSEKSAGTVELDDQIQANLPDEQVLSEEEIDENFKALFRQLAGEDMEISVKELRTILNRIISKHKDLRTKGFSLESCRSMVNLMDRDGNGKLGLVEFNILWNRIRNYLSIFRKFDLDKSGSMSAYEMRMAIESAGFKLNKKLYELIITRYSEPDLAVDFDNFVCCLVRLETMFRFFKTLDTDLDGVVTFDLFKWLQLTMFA
T1 sequence (P04632 1-268 partner): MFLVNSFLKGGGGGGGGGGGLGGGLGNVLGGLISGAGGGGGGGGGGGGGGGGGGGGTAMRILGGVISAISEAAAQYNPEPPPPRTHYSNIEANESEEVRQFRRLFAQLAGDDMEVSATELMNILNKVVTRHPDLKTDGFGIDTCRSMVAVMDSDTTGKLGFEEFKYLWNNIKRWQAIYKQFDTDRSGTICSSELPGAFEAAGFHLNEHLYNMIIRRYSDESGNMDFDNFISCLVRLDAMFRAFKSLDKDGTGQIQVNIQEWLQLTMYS
How it was run: (§1)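 IC50 values come from 4-parameter fits of progress-curve rates (1-5 min slopes) against log inhibitor concentration. Calpain and inhibitor premixed at ambient 25C in Tris pH ~7.5/NaCl/DTT buffer, then CaCl2 and FRET substrate added to activate; 5-FAM fluorescence (ex 490/em 520) followed 10 min.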

Human Calpain 9/NS1 = molecular target: T2, Human Calpain 9/NS1 (Homo sapiens, UniProt O14815); assay: Biochemical inhibition of calpain 9, continuous fluorescence (FRET substrate) assay; conditions: mean, read-out: Human Calpain 9/NS1 IC50 (nM)_MEAN
T2 sequence (O14815 1-690): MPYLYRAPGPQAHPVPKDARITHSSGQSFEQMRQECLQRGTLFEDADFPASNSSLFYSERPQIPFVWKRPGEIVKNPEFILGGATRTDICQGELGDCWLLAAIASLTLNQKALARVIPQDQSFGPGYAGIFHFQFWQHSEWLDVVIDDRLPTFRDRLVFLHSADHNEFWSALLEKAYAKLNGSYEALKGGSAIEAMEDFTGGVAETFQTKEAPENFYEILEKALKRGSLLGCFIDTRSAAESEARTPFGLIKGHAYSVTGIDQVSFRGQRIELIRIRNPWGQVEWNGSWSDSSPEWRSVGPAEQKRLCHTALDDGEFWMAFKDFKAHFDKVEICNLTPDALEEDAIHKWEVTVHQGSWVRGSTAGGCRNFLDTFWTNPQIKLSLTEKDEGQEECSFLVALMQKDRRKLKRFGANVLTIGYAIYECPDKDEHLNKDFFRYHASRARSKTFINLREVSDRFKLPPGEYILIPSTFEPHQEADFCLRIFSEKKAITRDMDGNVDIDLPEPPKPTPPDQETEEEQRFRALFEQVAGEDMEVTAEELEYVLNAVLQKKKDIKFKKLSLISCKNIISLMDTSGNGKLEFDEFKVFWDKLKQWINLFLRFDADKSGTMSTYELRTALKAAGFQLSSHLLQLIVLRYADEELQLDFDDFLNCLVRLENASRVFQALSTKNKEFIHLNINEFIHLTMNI
T2 sequence (P04632 1-268 partner): T1 sequence (P04632 1-268 partner)
How it was run: as §1

Human Calpain 2/NS1 = molecular target: T3, Human Calpain 2/NS1 (Homo sapiens, UniProt P17655); assay: Biochemical inhibition of calpain 2, continuous fluorescence (FRET substrate) assay; conditions: mean, read-out: Human Calpain 2/NS1 IC50 (nM)_MEAN
T3 sequence (P17655 1-700): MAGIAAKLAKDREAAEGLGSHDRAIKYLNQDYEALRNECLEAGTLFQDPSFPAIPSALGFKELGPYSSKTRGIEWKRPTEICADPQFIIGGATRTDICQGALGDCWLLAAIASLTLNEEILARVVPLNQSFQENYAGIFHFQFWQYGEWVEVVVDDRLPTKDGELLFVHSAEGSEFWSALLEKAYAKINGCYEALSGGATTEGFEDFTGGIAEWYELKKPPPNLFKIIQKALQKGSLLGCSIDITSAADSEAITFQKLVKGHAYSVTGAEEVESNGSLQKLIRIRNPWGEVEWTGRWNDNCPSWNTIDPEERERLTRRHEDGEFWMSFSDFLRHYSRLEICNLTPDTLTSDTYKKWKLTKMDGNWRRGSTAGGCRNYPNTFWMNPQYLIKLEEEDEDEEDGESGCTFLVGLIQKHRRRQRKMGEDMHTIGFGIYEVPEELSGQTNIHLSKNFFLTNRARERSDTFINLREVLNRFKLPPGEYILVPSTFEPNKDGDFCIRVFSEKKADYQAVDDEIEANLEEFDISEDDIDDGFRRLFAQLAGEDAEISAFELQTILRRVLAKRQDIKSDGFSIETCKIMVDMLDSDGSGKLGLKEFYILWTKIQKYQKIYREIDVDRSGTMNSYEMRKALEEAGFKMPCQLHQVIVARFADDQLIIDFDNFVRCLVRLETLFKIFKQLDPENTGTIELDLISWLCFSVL
T3 sequence (P04632 1-268 partner): T1 sequence (P04632 1-268 partner)
How it was run: as §1

| Structure (SMILES) | IC50 (Human Calpain 1/NS1) | IC50 (Human Calpain 9/NS1) | IC50 (Human Calpain 2/NS1) |
| --- | --- | --- | --- |
| CN(C)CCNC(=O)C(=O)C1CCCCOCCOCc2ccccc2C(=O)N1 (stereo not drawn) [Compound 110, N-(2-(dimethylamino)ethyl)-2-oxo-2-(12-oxo-1,3,4,6,7,8,9,10,11,12-decahydrobenzo[f][1,4]dioxa[9]azacyclotetradecin-10-yl)acetamide] | > 10000 nM | 3000 to 10000 nM | > 10000 nM |
| Cc1cc(C)cc(CNC(=O)C(=O)C2CCCCOCCOCc3ccccc3C(=O)N2)c1 (stereo not drawn) [Compound 111, N-(3,5-dimethylbenzyl)-2-oxo-2-(12-oxo-1,3,4,6,7,8,9,10,11,12-decahydrobenzo[f][1,4]dioxa[9]azacyclotetradecin-10-yl)acetamide] | > 10000 nM | < 3000 nM | 3000 to 10000 nM |
| CCCCc1ccc(CNC(=O)C(=O)C2CCCCOCCOCc3ccccc3C(=O)N2)cc1 (stereo not drawn) [Compound 112, N-(4-butylbenzyl)-2-oxo-2-(12-oxo-1,3,4,6,7,8,9,10,11,12-decahydrobenzo[f][1,4]dioxa[9]azacyclotetradecin-10-yl)acetamide] | > 10000 nM | < 3000 nM | > 10000 nM |
| CN(C)c1ccc(CNC(=O)C(=O)C2CCCCOCCOCc3ccccc3C(=O)N2)cc1 (stereo not drawn) [Compound 113, N-(4-(dimethylamino)benzyl)-2-oxo-2-(12-oxo-1,3,4,6,7,8,9,10,11,12-decahydrobenzo[f][1,4]dioxa[9]azacyclotetradecin-10-yl)acetamide] | > 10000 nM | < 3000 nM | > 10000 nM |
| O=C(NC1CC1)C(=O)C1CCCCOCCOCc2ccccc2C(=O)N1 (stereo not drawn) [Compound 114, N-cyclopropyl-2-oxo-2-(12-oxo-1,3,4,6,7,8,9,10,11,12-decahydrobenzo[f][1,4]dioxa[9]azacyclotetradecin-10-yl)acetamide] | > 10000 nM | > 10000 nM | > 10000 nM |
| O=C1NC(C(=O)C(=O)N2CCOCC2)CCCCOCCOCc2ccccc21 (stereo not drawn) [Compound 115, 1-Morpholino-2-(12-oxo-1,3,4,6,7,8,9,10,11,12-decahydrobenzo[f][1,4]dioxa[9]azacyclotetradecin-10-yl)ethane-1,2-dione] | > 10000 nM | > 10000 nM | > 10000 nM |
| COc1cccc(CN(C)C(=O)C(=O)C2CCCCOCCOCc3ccccc3C(=O)N2)c1 (stereo not drawn) [Compound 116, N-(3-methoxybenzyl)-N-methyl-2-oxo-2-(12-oxo-1,3,4,6,7,8,9,10,11,12-decahydrobenzo[f][1,4]dioxa[9]azacyclotetradecin-10-yl)acetamide] | > 10000 nM | > 10000 nM | > 10000 nM |
| O=C(NCc1ccncc1)C(=O)C1CCCCOCCOCc2ccccc2C(=O)N1 (stereo not drawn) [Compound 117, 2-Oxo-2-(12-oxo-1,3,4,6,7,8,9,10,11,12-decahydrobenzo[f][1,4]dioxa[9]aza-cyclotetradecin-10-yl)-N-(pyridin-4-ylmethyl)acetamide] | > 10000 nM | < 3000 nM | 3000 to 10000 nM |
| CS(=O)(=O)c1cccc(CNC(=O)C(=O)C2CCCCOCCOCc3ccccc3C(=O)N2)c1 (stereo not drawn) [Compound 118, N-(3-(methylsulfonyl)benzyl)-2-oxo-2-(12-oxo-1,3,4,6,7,8,9,10,11,12-decahydrobenzo[f][1,4]dioxa[9]azacyclotetradecin-10-yl)acetamide] | > 10000 nM | < 3000 nM | > 10000 nM |
| COc1cc(CNC(=O)C(=O)C2CCCCOCCOCc3ccccc3C(=O)N2)cc(OC)c1 (stereo not drawn) [Compound 119, N-(3,5-dimethoxybenzyl)-2-oxo-2-(12-oxo-1,3,4,6,7,8,9,10,11,12-decahydrobenzo[f][1,4]dioxa[9]azacyclotetradecin-10-yl)acetamide] | > 10000 nM | < 3000 nM | 3000 to 10000 nM |

Further lines, results first:

| IC50 (Human Calpain 1/NS1) | IC50 (Human Calpain 9/NS1) | IC50 (Human Calpain 2/NS1) | Structure (SMILES) |
| --- | --- | --- | --- |
| > 10000 nM | < 3000 nM | > 10000 nM | O=C(NCc1cccc(OC(F)(F)F)c1)C(=O)C1CCCCOCCOCc2ccccc2C(=O)N1 (stereo not drawn) [Compound 120, 2-Oxo-2-(12-oxo-1,3,4,6,7,8,9,10,11,12-decahydrobenzo[f][1,4]dioxa[9]aza-cyclotetradecin-10-yl)-N-(3-(trifluoromethoxy)benzyl)acetamide] |
| > 10000 nM | < 3000 nM | 3000 to 10000 nM | CS(=O)(=O)c1ccc(CNC(=O)C(=O)C2CCCCOCCOCc3ccccc3C(=O)N2)cc1 (stereo not drawn) [Compound 121, N-(4-(methylsulfonyl)benzyl)-2-oxo-2-(12-oxo-1,3,4,6,7,8,9,10,11,12-decahydrobenzo[f][1,4]dioxa[9]azacyclotetradecin-10-yl)acetamide] |
| > 10000 nM | > 10000 nM | > 10000 nM | COCCOCCOCCNC(=O)C(=O)C1CCCCOCCOCc2ccccc2C(=O)N1 (stereo not drawn) [Compound 122, N-(2-(2-(2-methoxyethoxy)ethoxy)ethyl)-2-oxo-2-(12-oxo-1,3,4,6,7,8,9,10,11,12-decahydrobenzo[f][1,4]dioxa[9]azacyclotetradecin-10-yl)acetamide] |
| > 10000 nM | 3000 to 10000 nM | > 10000 nM | COc1ccc(CCNC(=O)C(=O)C2CCCCOCCOCc3ccccc3C(=O)N2)cc1OC (stereo not drawn) [Compound 123, N-(3,4-dimethoxyphenethyl)-2-oxo-2-(12-oxo-1,3,4,6,7,8,9,10,11,12-decahydrobenzo[f][1,4]dioxa[9]azacyclotetradecin-10-yl)acetamide] |
| > 10000 nM | > 10000 nM | > 10000 nM | CC(C)(NC(=O)C(=O)C1CCCCOCCOCc2ccccc2C(=O)N1)c1cccnc1 (stereo not drawn) [Compound 124, 2-Oxo-2-(12-oxo-1,3,4,6,7,8,9,10,11,12-decahydrobenzo[f][1,4]dioxa[9]azacyclotetradecin-10-yl)-N-(2-(pyridin-3-yl)propan-2-yl)acetamide] |
| > 10000 nM | > 10000 nM | > 10000 nM | O=C(NC1(c2cccnc2)CC1)C(=O)C1CCCCOCCOCc2ccccc2C(=O)N1 (stereo not drawn) [Compound 125, 2-Oxo-2-(12-oxo-1,3,4,6,7,8,9,10,11,12-decahydrobenzo[f][1,4]dioxa[9]aza-cyclotetradecin-10-yl)-N-(1-(pyridin-3-yl)cyclopropyl)acetamide] |
